Holding throughout (format): in vivo
For assay [1], the target named is T1, DPP4 (Rattus norvegicus, UniProt P14740).
T1 construct: from tissue; host or cells: Wistar rats dosed in vivo; activity read in tail-vein plasma
The assay is described as follows: DPP4 activity in plasma of rats injected with DPP4 inhibitors (G-P-4 nitroanilide substrate, 405 nm). Particulars: Wistar rats, s.c., 0.3-3.2 mg/kg, 1 h after injection; FIG. 2. The procedure:
The DPP4 inhibitor AB192 (bis(4-acetamidophenyl)-1-(S)-prolylpyrrolidine-2-(R,S)-phosphonate) (J. Med. Chem., 1999, 42:1041-52) was kindly provided by Ingrid De Meester (University of Antwerp, Campus Drie Eiken, Department of Pharmaceutical Sciences, Universiteitsplein 1, B-2610 Wilrijk-Antwerpen). AB192, an irreversible inhibitor of DPP4, was used at 0.32, 1.00 and 3.2 mg/kg body weight. The control inhibitor (Contr.In.) was used at 0.3, 1.0 and 3.0 mg/kg body weight. Eight week old Wistar rats (315-320 g body weight) received either of the inhibitors (8 animals for each inhibitor concentration of each inhibitor) or were treated with vehicle (50 mM sodium phosphate buffer; pH 7.4) (4 animals). The rats received the inhibitors or vehicle by subcutaneous injection into the fat tissue of the neck using a 27-G needle. […]
Blood samples taken from the tail vein were immediately centrifuged (2000×g; 10 min at room temperature) and plasma stored at −20° C. […] The 96-well plate was read immediately using a Tecan Genios microplate reader (Tecan Deutschland GmbH, Crailsheim, Germany) and measurements were taken at 37° C. over a period of time of 1 h at a wavelength of 405 nm. From the measured values the blank signal (plasma+HEPES buffer) was subtracted and data calculated as Units/litre (U/l). […]

Assay [2] concerns the target T1, DPP4. As to the kind of experiment: Peptide display (RP chromatography + MALDI-MS) of rat plasma: Spearman correlation of peptide/protein signals with inhibitor concentration or before/after change in DPP4 activity. Further details: key to Correlation of mass spectrometric signal with concentration of inhibitor AB & Contr.In. A / Correlation of mass spectrometric signal with concentration of inhibitor Contr.In. C: With positive (pos.) correlation regarding the inhibitor concentration is meant that higher concentrations of inhibitor result in higher concentration of a peptide or protein. As to the method: The DPP4 inhibitor AB192 (bis(4-acetamidophenyl)-1-(S)-prolylpyrrolidine-2-(R,S)-phosphonate) (J. Med. Chem., 1999, 42:1041-52) was kindly provided by Ingrid De Meester (University of Antwerp, Campus Drie Eiken, Department of Pharmaceutical Sciences, Universiteitsplein 1, B-2610 Wilrijk-Antwerpen). AB192, an irreversible inhibitor of DPP4, was used at 0.32, 1.00 and 3.2 mg/kg body weight. The control inhibitor (Contr.In.) was used at 0.3, 1.0 and 3.0 mg/kg body weight. Eight week old Wistar rats (315-320 g body weight) received either of the inhibitors (8 animals for each inhibitor concentration of each inhibitor) or were treated with vehicle (50 mM sodium phosphate buffer; pH 7.4) (4 animals). The rats received the inhibitors or vehicle by subcutaneous injection into the fat tissue of the neck using a 27-G needle. Blood samples (100 μl) for DPP4 activity measurements were drawn from the tail vein before injection and at the end of the experiment 1 h after injection of the DPP4 inhibitors. At this point, the rats were anaesthetised using a mixture of ketamin (9 mg/100 g body weight) and rompun (0.2 mg/100 g body weight). Additionally, rats received a short burst of ether for quick anaesthesia. The thorax was opened immediately and 4 to 6 ml of blood taken from the right ventricle into ethylenediaminetetraacetic acid (EDTA) laminated syringes and transferred into a 15 ml tube filled with EDTA at a final concentration of 2.5 mg/ml.
Rat blood samples were consecutively centrifuged at room temperature for 10 min at 2000×g and for 15 min at 2500×g. The resulting platelet poor plasma was stored at −80° C. until analysis. For reduction of the protein load of the plasma, the plasma sample was diluted 1:4 with 8 M guanidinium chloride solution at room temperature and for quality control purposes a peptide standard mix was added resulting in a final concentration of 300 to 800 pM of each individual standard peptide added. The peptides added were: substance P, somatostatin-14, neurotensin, renin substrate (porcine), adrenocorticotropic hormone (ACTH)(1-17), big endothelin-1(19-38), ACTH(18-39), beta-Endorphin(6-31), adrenocorticotropic hormone(1-24), calcitonin (human), insulin B chain oxide (bovine), ACTH(7-38), pro34-neuropeptide Y (porcine) and growth hormone-releasing factor (GRF)(1-44). All Peptides or proteins represent the human sequence, if not indicated to the contrary and the numbers in brackets following some of the peptides indicate the amino acid positions of the complete sequence including said peptide. Prior to use, the ultrafiltration devices are rinsed with distilled water. Ultrafiltration was done using Amicon Ultra filter devices with a molecular weight cut-off of 50 kDa (Millipore, Bedford, USA), which were centrifuged according to the manufacturer's instructions at 4000×g for 60 min at room temperature in a swinging bucket rotor. Finally, the pH of the filtrate was adjusted to pH 2 to 3 using concentrated HCl (30% v/v). If the sample (filtrate) was not directly further processed, it was stored at −80° C. A 750 μl-equivalent of plasma was used per chromatographic run.
The separation of peptides and/or proteins was done using a Source 5RPC, 4,6×150 mm reverse phase chromatography column (Amersham Biosciences Europe GmbH, Freiburg, Germany). Buffer A was 0.06% (v/v) (volume per volume) trifluoroacetic acid (TFA) in distilled water and buffer B was 0.05% (v/v) TFA, 80% (v/v) acetonitrile in distilled water. The chromatography took place at 33° C. using a HP 1100 HPLC with a micro flow cell both supplied by Agilent Technologies, Böblingen, Germany. The samples were diluted to 5.5 ml using a 0.1% (v/v) stock solution of trifluoroacetic acid. Prior to chromatography, the samples were centrifuged at 4° C. and 15 000×g for 10 minutes and finally 5 ml of sample were loaded onto the chromatography column representing an equivalent of 750 μl plasma. […]

For assay [3], the target named is T1, DPP4. The assay is described as follows: Panels of pairs of peptides/proteins (linear model): correlation to inhibitor concentration or to decreased DPP4 activity. Particulars: for Correlation coefficient of Panel 1 + 2: panel of both peptides/proteins; for Correlation coefficient of Pep./Prot. 1: single peptide/protein 1 of the panel; for Correlation coefficient of Pep./Prot. 2: single peptide/protein 2 of the panel. As to the method: In addition, networks of peptides and/or proteins were calculated. This allows, for example, to identify panels of peptides and/or proteins, which enable to better reflect the biological impact of the inhibitors (FIG. 5/Table 2). Combining two peptides and/or proteins in these panels increased the reliability of the prediction (e.g. concentration of inhibitor, “before/after change in DPP4 activity”) possible by evaluating these peptide/protein panels. These panels were determined by comprehensively combining peptide and/or protein signals to pairs of peptide and/or protein signals. In a “linear model”, the signal intensities of the peptide and/or protein pairs were treated as independent variables, and the endpoint DPP4 concentration (or change in DPP4 activity) was treated as the dependent variable. The “linear model” was then calculated (e.g. with R-package, version 2.00 (R Foundation for Statistical Computing, Vienna, Austria) or S-plus, version 6.0 (Insightful AG, Reinach, Switzerland), etc.).
In addition to panels of peptides and/or proteins, surrogate networks of peptides and/or proteins can also be predicted, which peptides and/or proteins can replace each other, i.e. the peptides and/or proteins are surrogates of each other. Using this method it is, for example, possible to identify peptides and/or proteins which have the same diagnostic value. […] In addition, it is possible to choose those peptides and/or proteins of a surrogate network, which can be measured with the least effort. Both strategies can be combined to save time, resources, valuable or limited patient samples, etc. For determining these surrogate networks and peptide and/or protein panels, methods such as the methods described in PCT/EP 2005/000090 can be used.

Where [4] appears, read: with DPP4 activity in presence of AB (AB192 inhibitor).
Where [5] appears, read: with concentration of AB and Contr.In.
Where [6] appears, read: with concentration of AB (AB192 inhibitor).

Entries after “also recorded” stand apart in the source; their conditions may differ.

T1 sequence (P14740 whole entry): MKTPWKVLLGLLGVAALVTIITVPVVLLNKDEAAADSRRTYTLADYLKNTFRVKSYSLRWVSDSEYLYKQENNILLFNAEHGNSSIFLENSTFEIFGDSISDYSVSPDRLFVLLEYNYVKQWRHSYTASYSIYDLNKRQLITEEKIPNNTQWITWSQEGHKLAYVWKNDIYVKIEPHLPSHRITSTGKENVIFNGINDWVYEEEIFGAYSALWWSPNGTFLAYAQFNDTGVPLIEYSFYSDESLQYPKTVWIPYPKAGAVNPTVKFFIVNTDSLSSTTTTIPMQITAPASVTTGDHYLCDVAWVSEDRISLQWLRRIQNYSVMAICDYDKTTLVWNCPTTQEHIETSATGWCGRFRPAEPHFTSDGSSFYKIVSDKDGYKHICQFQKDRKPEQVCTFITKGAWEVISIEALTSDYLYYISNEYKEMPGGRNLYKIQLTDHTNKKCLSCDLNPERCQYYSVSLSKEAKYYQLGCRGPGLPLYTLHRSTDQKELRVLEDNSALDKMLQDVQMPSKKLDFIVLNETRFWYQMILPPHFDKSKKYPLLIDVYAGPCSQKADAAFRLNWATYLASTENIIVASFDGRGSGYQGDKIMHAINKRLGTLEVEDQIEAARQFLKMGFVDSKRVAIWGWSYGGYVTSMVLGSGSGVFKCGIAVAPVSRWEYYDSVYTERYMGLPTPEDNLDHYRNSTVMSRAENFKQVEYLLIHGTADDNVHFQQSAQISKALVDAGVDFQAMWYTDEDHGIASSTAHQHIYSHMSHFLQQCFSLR

For the compound `CC(=O)Nc1ccc(OP(=O)(Oc2ccc(NC(C)=O)cc2)C2CCCN2C(=O)[C@@H]2CCCN2)cc1` (stereo partly drawn) [AB192, bis(4-acetamidophenyl)-1-(S)-prolylpyrrolidine-2-(R,S)-phosphonate], the “DPP4 activity in plasma” value at DPP4 [1] is listed as “inhibited the activity of DPP4 in vivo in rats in a dose dependent manner; also recorded: inhibit DPP4 activity in vivo in a dose-dependent manner”.
For the compound “GAPGQNGEPGAKGERGAPGEKGEGGPPG [Peptide/Protein No. 45]”, the “Correlation of mass spectrometric signal with DPP4 inhibition by Contr.In. F” value at DPP4 [2] (Spearman, before/after change in DPP4 activity with control inhibitor, but not AB192, n=31, |r|>0.61, rat plasma) was “neg”. Further, at DPP4 [2] (plasma of rats treated with control inhibitor (Contr.In.), FIG. 3A, 4B), the “correlation of mass spectrometric signal with the DPP4 activity measured in the same samples” value was “negatively”. Further, at DPP4 [3] (setting [4]), the “Correlation coefficient of Panel 1 + 2” value amounted to 0.54, the “Correlation coefficient of Pep./Prot. 1” value is reported as −0.38 and the “Correlation coefficient of Pep./Prot. 2” value is recorded as −0.4.
For “LPGPPGERGGPGSRGFPGADGVAGP [Peptide/Protein No. 2]”, the “Correlation of mass spectrometric signal with concentration of inhibitor AB & Contr.In. A” value at DPP4 [2] (Spearman, correlates with concentration of AB192 and of control inhibitor, n=49, |r|>0.5, rat plasma 1 h after s.c. injection) is listed as “pos”. Moreover, the “correlation of mass spectrometric signal with the amount of the DPP4 inhibitor AB192 or the control inhibitor given to the rat” value at DPP4 [2] (rat plasma, FIG. 3B) is “positively”. Further, at DPP4 [3] (setting [5]), the “Correlation coefficient of Panel 1 + 2” value was 0.59, the “Correlation coefficient of Pep./Prot. 1” value was −0.52 and the “Correlation coefficient of Pep./Prot. 2” value is −0.52.
Consider PPGPPGPPGPPGPPS [Peptide/Protein No. 3], for which, at DPP4 [2] (Spearman, concentration of control inhibitor, but not of AB192, n=27, |r|>0.61, rat plasma), the “Correlation of mass spectrometric signal with concentration of inhibitor Contr.In. C” value is “pos”. Further, the “correlation of mass spectrometric signal with the amount of control inhibitor (Contr.In.) given to the rat” value at DPP4 [2] (rat plasma, FIG. 4A) is given as “positively”. Moreover, at DPP4 [3] (setting [6]), the “Correlation coefficient of Panel 1 + 2” value turned out to be 0.66, the “Correlation coefficient of Pep./Prot. 1” value is −0.44 and the “Correlation coefficient of Pep./Prot. 2” value was found to be 0.48.

Source of the values: patent US20070037143A1, “Method for screening for protease modulators” (DIGILAB BioVisioN GmbH, priority 2005, published 2007).
